Data published in the SangsterLogP compilation.

experiment: from Caliendo, G., Novellino, E., Santagada, V., Silipo, C., & Vittoria, A. (1991). Structure-activity relationships in a set of antimicrobial. In QSAR, Rational Approaches to the Design of Bioactive …

| logP | SMILES |
| --- | --- |
| 2.53 | Cn1nc2ccc(NC(=O)c3ccc([N+](=O)[O-])cc3)cc2n1 |
| 2.38 | COc1cc(C(=O)Nc2ccc3nn(C)nc3c2)cc(OC)c1OC |
| 4.45 | O=C(Nc1ccc2nn(C3CCCCC3)nc2c1)c1ccccc1 |
| 3.13 | Cn1nc2ccc(NC(=O)c3ccc(Cl)cc3)cc2n1 |
| 4.57 | O=C(Nc1ccc2nn(C3CCCCC3)nc2c1)c1ccc([N+](=O)[O-])cc1 |
| 2.44 | Cn1nc2ccc(NC(=O)c3ccccc3)cc2n1 |
| 3.87 | O=C(Nc1ccc2nn(C3CCCCC3)nc2c1)C(Cl)Cl |
| 5.85 | O=C(Nc1ccc2nn(C3CCCCC3)nc2c1)c1ccc(Cl)c(Cl)c1 |
| 1.22 | Cn1nc2ccc(NC(=O)CCl)cc2n1 |

experiment: not given

| logP | SMILES |
| --- | --- |
| 4.45 | COc1cc(C(=O)Nc2ccc3nn(C4CCCCC4)nc3c2)cc(OC)c1OC |
